Measured values: US9574190B2, “Screening method for peptide binding to target molecule in pH-dependent manner” (The University of Tokyo, priority 2012, dated 2017)
Bridge positions count the residues as written; N and C are the ends. Square brackets hold non-standard residues; d marks the D form. Peptide text beside a SMILES is read from it. Tyr(3-NO2) = N[C@@H](Cc1ccc(O)c([N+](=O)[O-])c1)C(=O)O; dTyr(3-NO2) = N[C@H](Cc1ccc(O)c([N+](=O)[O-])c1)C(=O)O; Arg(NO2) = N=C(NCCC[C@H](N)C(=O)O)N[N+](=O)[O-]

Target: T1, FcRn (Homo sapiens, UniProt P55899)
T1 construct: human soluble FcRn chemically biotinated with NHS-biotin
Assay: Biacore T100 measurement of dissociation constant of solid-phase synthesized peptide with immobilized FcRn
Assay type: binding
Method: In order to find whether a peptide alone interacts with FcRn in a pH dependent manner, the peptide 2G01D not having SGSGS on the C-terminal side of 8D-01 and amidated at the C-terminal was synthesized on a solid phase and a dissociation constant Kd binding constant was measured using Biacore T100 (GE Healthcare). FcRn was immobilized onto a sensor chip by an amine coupling method. The following is the peptide 2G01D:
On the other hand, a solid-phase synthesized peptide 2G01D was added as an analyte to a phosphate buffer having a pH 6.0 or 7.4 and a dissociation constant was measured.

T1 sequence (P55899 24-297 limits assumed): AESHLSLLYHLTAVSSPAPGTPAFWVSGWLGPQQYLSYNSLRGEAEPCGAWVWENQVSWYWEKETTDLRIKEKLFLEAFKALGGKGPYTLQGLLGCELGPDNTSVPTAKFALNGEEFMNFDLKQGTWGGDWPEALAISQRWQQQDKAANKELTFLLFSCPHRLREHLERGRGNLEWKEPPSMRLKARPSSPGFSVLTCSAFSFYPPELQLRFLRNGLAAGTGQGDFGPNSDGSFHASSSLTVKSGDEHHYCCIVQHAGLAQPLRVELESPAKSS
T1 sequence (P61769 21-119 partner): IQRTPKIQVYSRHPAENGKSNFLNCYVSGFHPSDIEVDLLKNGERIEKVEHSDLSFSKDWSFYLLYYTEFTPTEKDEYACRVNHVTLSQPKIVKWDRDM

SMILES: CC(C)C[C@@H]1NC(=O)[C@H](Cc2ccc(O)c([N+](=O)[O-])c2)NC(=O)[C@H](CC(C)C)NC(=O)[C@@H]2CCCN2C(=O)[C@H](CC(=O)O)NC(=O)CNC(=O)[C@H](CCCNC(=N)N[N+](=O)[O-])NC(=O)[C@H](CC(N)=O)NC(=O)[C@H](Cc2ccc(O)cc2)NC(=O)[C@H](CC(C)C)NC(=O)[C@H](Cc2ccc(O)c([N+](=O)[O-])c2)NC(=O)[C@H](Cc2ccccc2)NC(=O)[C@@H](Cc2ccc(O)c([N+](=O)[O-])c2)NC(=O)CSC[C@@H](C(=O)NCC(N)=O)NC1=O [2G01D] ({CH2CO}-[dTyr(3-NO2)]F[Tyr(3-NO2)]LYN[Arg(NO2)]GDPL[Tyr(3-NO2)]LCG-NH2; thioether N-14)
- koff (pH 6.0, phosphate buffer): 0.00394 s⁻¹
- kon (pH 6.0, phosphate buffer): 925000 M⁻¹ s⁻¹
- koff (pH 7.4, phosphate buffer): 0.00955 s⁻¹
- kon (pH 7.4, phosphate buffer): 32600 M⁻¹ s⁻¹
